From patent US6924283B2, “4-thioxo-4,7-dihydro-thieno[2,3-b]pyridine-5-carbothioamides as antiviral agents” (Pfizer, priority 2001, dated 2005)

Columns and labels:
Assay type in all cases: biochemical
HCMV polymerase = biological target: T1, HCMV polymerase (Human cytomegalovirus, UniProt P08546); assay: HCMV polymerase scintillation proximity assay (modified version); details: modified SPA assay, compounds diluted in 100% DMSO, 4.5 mM DTT
T1 construct: made in house; host or cells: recombinant baculovirus-infected SF-9 cells
Method: The HCMV polymerase assay is performed using a scintillation proximity assay (SPA) as described in several references, such as N. D. Cook, et al., Pharmaceutical Manufacturing International, pages 49-53 (1992); K. Takeuchi, Laboratory Practice, September issue (1992); U.S. Pat. No. 4,568,649 (1986); which are incorporated by reference herein. Reactions are performed in 96-well plates. The assay is conducted in 100 μl volume with 5.4 mM HEPES (pH 7.5), 11.7 mM KCl, 4.5 mM MgCl2, 0.36 mg/ml BSA, and 90 nM ^3H-dTTP. Assays are run with and without CHAPS, (3-[(3-cholamidopropyl)-dimethylammonio]-1-propane-sulfonate) at a final concentration of 2 mM. HCMV polymerase is diluted in enzyme dilution buffer containing 50% glycerol, 250 mM NaCl, 10 mM HEPES (pH 7.5), 100 μg/ml BSA, and 0.01% sodium azide. […] Plates are incubated 10 min. at 37° C., then equilibrated to room temperature, and counted on a Packard Topcount. Linear regressions are performed and IC50's are calculated using computer software.
A modified version of the above HCMV polymerase assay is performed as described above, but with the following changes: Compounds are diluted in 100% DMSO until final dilution into assay buffer. […] In Table 1, the term “nd” refers to activity data not determined.

HSV polymerase = HSV polymerase (Human herpesvirus 1, UniProt P04293); assay: HSV polymerase assay (Table 1)
VZV polymerase = VZV polymerase (Varicella-zoster virus, UniProt P09252); assay: VZV polymerase assay (Table 1)
Chain of VZV polymerase (P09252 whole entry): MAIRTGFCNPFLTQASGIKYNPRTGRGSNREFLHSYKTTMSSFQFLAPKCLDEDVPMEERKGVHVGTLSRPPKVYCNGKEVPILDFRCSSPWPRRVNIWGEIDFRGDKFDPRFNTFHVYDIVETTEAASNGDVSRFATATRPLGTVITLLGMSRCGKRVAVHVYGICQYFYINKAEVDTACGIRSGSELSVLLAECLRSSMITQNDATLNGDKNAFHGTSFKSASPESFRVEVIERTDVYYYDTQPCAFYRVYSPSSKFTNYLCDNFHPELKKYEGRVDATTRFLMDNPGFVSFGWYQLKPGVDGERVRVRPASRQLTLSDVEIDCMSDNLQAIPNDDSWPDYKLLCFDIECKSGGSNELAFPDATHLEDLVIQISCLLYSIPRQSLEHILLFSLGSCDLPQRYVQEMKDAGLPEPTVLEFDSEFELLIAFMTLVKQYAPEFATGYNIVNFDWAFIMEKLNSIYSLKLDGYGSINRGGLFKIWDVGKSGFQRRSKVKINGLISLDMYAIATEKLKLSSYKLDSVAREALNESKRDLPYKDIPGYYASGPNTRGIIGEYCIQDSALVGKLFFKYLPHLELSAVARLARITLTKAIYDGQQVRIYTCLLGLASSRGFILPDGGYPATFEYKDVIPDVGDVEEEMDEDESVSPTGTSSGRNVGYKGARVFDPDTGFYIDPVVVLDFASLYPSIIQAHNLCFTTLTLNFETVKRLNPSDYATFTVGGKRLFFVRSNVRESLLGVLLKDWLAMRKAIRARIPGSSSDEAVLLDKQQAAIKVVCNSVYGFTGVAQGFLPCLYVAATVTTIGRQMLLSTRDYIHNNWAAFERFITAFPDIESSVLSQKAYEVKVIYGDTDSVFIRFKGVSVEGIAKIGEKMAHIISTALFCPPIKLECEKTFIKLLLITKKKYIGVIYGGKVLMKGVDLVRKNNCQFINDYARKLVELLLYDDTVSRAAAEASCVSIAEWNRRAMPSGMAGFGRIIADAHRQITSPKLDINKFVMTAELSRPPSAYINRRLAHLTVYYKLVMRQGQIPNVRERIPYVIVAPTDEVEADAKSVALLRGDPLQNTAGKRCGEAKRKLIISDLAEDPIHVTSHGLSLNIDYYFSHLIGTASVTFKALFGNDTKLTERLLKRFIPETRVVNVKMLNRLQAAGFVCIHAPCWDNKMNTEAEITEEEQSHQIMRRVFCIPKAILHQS

Chain of HSV polymerase (P04293 whole entry): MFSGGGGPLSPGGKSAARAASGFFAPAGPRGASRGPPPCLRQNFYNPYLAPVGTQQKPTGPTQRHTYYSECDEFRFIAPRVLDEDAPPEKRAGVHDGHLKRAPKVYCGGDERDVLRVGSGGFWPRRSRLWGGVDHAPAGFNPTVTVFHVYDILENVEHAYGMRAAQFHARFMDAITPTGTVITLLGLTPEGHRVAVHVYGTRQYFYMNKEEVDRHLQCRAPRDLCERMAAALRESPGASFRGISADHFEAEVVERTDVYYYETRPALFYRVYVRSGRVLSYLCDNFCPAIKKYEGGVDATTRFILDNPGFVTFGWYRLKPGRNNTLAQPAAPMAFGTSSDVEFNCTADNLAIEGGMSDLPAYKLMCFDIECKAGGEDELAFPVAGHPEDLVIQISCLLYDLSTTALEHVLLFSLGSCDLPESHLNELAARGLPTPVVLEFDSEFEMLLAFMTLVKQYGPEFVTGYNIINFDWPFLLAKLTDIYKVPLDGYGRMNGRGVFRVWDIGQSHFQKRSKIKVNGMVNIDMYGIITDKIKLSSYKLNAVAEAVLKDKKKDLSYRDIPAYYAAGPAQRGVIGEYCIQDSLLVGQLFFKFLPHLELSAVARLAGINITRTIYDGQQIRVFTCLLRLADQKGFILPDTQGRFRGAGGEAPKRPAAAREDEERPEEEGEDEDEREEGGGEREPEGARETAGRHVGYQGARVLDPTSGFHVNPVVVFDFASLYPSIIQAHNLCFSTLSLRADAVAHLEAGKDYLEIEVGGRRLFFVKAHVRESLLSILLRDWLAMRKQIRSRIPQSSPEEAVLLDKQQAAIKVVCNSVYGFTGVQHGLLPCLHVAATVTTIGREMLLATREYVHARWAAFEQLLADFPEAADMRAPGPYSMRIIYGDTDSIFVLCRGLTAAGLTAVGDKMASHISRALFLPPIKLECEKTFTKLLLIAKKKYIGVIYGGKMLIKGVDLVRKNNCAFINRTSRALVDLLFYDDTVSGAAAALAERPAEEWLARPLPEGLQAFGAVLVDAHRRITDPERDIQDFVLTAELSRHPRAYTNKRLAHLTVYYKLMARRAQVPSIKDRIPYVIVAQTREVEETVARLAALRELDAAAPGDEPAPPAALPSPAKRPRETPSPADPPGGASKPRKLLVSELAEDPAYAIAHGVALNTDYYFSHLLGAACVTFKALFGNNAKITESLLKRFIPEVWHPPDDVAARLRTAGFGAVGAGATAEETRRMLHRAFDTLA
T1 sequence (P08546 whole entry): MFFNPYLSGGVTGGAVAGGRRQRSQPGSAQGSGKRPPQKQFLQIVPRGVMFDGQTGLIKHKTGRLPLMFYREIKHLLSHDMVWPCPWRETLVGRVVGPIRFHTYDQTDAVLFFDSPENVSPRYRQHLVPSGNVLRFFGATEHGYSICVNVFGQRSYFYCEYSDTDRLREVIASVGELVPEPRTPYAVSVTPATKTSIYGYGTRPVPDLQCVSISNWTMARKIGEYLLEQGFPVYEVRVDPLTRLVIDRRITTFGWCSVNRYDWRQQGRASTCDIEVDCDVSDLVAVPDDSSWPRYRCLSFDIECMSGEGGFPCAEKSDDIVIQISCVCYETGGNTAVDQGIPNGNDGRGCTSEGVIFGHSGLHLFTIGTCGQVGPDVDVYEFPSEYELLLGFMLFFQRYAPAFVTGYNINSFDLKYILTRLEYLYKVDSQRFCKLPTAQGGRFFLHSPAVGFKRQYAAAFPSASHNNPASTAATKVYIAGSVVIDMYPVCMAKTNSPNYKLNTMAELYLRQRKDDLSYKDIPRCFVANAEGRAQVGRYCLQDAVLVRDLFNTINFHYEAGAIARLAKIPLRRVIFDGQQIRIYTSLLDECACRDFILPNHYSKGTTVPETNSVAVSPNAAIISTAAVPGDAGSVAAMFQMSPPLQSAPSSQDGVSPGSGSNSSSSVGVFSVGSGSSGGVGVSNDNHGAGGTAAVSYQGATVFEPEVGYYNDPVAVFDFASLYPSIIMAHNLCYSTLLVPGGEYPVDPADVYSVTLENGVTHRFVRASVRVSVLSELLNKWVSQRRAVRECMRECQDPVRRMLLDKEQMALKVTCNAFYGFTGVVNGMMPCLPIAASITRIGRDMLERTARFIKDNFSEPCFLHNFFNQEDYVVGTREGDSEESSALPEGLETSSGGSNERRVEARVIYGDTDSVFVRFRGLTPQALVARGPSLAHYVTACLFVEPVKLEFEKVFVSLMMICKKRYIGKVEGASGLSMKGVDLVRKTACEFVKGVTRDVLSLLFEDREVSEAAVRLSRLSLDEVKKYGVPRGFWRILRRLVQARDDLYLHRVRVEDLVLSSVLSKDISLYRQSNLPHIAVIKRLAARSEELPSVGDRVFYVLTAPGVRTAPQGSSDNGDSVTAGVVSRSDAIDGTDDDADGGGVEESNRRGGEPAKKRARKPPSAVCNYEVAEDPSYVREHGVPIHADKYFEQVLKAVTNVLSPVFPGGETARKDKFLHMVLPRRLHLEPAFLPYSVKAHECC

Cn1cc(C(=S)NCc2ccc(Cl)cc2)c(=S)c2cc(CN3CCOCC3)sc21 [Example 1, N-(4-Chlorobenzyl)-7-methyl-2-(4-morpholinylmethyl)-4-thioxo-4,7-dihydrothieno[2,3-b]pyridine-5-carbothioamide]
IC50 (HCMV polymerase): 910 nM | IC50 (HSV polymerase): 360 nM | IC50 (VZV polymerase): 130 nM
